Measurements as given in patent publication US8916567B2, “Certain crystalline hydrates, pharmaceutical compositions thereof and methods for preparation and use thereof” (Universal Technology Alliance, Inc., priority 2009, dated 2014).

Legend:
[1] = test system: Staphylococcus aureus; test: Minimum inhibitory concentration (MIC) in vitro, agar dilution method, quality control strain; assay type: cell-based; details: strain S. AT C C25923 (Table 7 No. 1); hydrate
How it was run: (§1)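 Clinical isolates collected in Sichuan and Beijing (2007–2008) were tested by CLSI/NCCLS agar dilution. Compounds were dissolved in DMSO and diluted in sterile distilled water; MIC50, MIC90 and MIC range across strains were derived.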

[2] = Solubility in different solvents according to Chinese Pharmacopeia (2005 edition); assay type: physicochemical; details: for Result: at the given solute:solvent ratio
Protocol: The solubility of the (S)—[N-3-(3′-fluoro-4′-(4″-phenylpiperazinyl))phenyl-2-oxo-5-oxazolelidinyl]methylacetamide hydrates was tested with different solvents, and the test results are shown in Tables 15-19. The solubility was measured according to Chinese Pharmacopeia (2005 edition).

[3] = test system: S. epidermidis MSSE; test: Minimum inhibitory concentration (MIC) in vitro, agar dilution method; assay type: cell-based; details: hydrate
How it was run: as §1

[4] = test system: E. feacium; test: as above; assay type: cell-based; details: hydrate
How it was run: as §1

[5] = test system: S. epidermidis MRSE; test: as above; assay type: cell-based; details: hydrate
How it was run: as §1

[6] = test system: E. feacalis; test: as above; assay type: cell-based; details: hydrate
How it was run: as §1

[7] = test system: Staphylococcus aureus MRSA; test: as above; assay type: cell-based; details: hydrate
How it was run: as §1

[8] = test system: Staphylococcus aureus MSSA; test: as above; assay type: cell-based; details: hydrate
How it was run: as §1

[9] = S. ep MSSE (10 strains), clinically isolated
[10] = E. feacium (5 strains), clinically isolated
[11] = S. ep MRSE (10 strains), clinically isolated
[12] = E. feacalis (5 strains), clinically isolated
[13] = S. MRSA (10 strains), clinically isolated
[14] = S. MSSA (11 strains), clinically isolated

Question: For `CC(=O)NC[C@H]1CN(c2ccc(N3CCN(c4ccccc4)CC3)c(F)c2)C(=O)O1` [⅖ hydrate, (S)—[N-3-(3′-fluoro-4′-(4″-phenylpiperazinyl))phenyl-2-oxo-5-oxazolidinyl]methyl acetamide 2/5 hydrate], which MIC [1] is on record?
Answer: 0.5 µg/mL

Question: What about the “Solubility compared with the anhydride” value ([2]; different solvents) of the same molecule?
Answer: sometimes more soluble than the anhydride

Question: What about the Result ([2]; solvent 0.1N Hydrochloric acid) of the same molecule?
Answer: Dissolved

Question: And the Result ([2]; solvent 0.1N Sodium hydroxide)?
Answer: Insoluble

Question: And the Result ([2]; solvent Acetonitrile)?
Answer: Dissolved

Question: What about the Result ([2]; solvent Ethanol) of the same molecule?
Answer: Dissolved

Question: And the Result ([2]; solvent Methanol)?
Answer: Dissolved

Question: And the Result ([2]; solvent Water, hydrate)?
Answer: Dissolved

Question: What about the MIC50 [3, 9] of the same molecule?
Answer: 0.5 µg/mL

Question: What about the MIC90 [3, 9] of the same molecule?
Answer: 0.5 µg/mL

Question: What about the MICrange [3, 9] of the same molecule?
Answer: 0.125 to 0.5 µg/mL

Question: And the MIC ([3]; strain S. ep MSSE87 (Table 7 No. 23))?
Answer: 0.125 µg/mL

Question: And the MIC ([3]; strain S. ep MSSE88 (Table 8 No. 5))?
Answer: 0.5 µg/mL

Question: What about the MIC ([3]; strain S. ep MSSE113 (Table 7 No. 24)) of the same molecule?
Answer: 0.5 µg/mL

Question: What about the MIC ([3]; strain S. ep MSSE116 (Table 7 No. 25)) of the same molecule?
Answer: 0.5 µg/mL

Question: What about the MIC ([3]; strain S. ep MSSE118 (Table 8 No. 2)) of the same molecule?
Answer: 0.5 µg/mL

Question: What about the MIC ([3]; strain S. ep MSSE119 (Table 7 No. 27)) of the same molecule?
Answer: 0.125 µg/mL

Question: What about the MIC ([3]; strain S. ep MSSE137 (Table 8 No. 4)) of the same molecule?
Answer: 0.5 µg/mL

Question: What about the MIC ([3]; strain S. ep MSSE140 (Table 8 No. 3)) of the same molecule?
Answer: 0.5 µg/mL

Question: And the MIC ([3]; strain S. ep MSSE142 (Table 7 No. 26))?
Answer: 0.25 µg/mL

Question: What about the MIC ([3]; strain S. ep MSSE153 (Table 8 No. 1)) of the same molecule?
Answer: 0.5 µg/mL

Question: What about the MIC50 [4, 10] of the same molecule?
Answer: 1 µg/mL

Question: And the MIC90 [4, 10]?
Answer: 1 µg/mL

Question: What about the MICrange [4, 10] of the same molecule?
Answer: 0.5 to 1 µg/mL

Question: What about the MIC ([4]; strain Efm 98 (Table 8 No. 21)) of the same molecule?
Answer: 0.5 µg/mL

Question: And the MIC ([4]; strain Efm 171 (Table 8 No. 25))?
Answer: 0.5 µg/mL

Question: What about the MIC ([4]; strain Efm 197 (Table 8 No. 22)) of the same molecule?
Answer: 1 µg/mL

Question: And the MIC ([4]; strain Efm N3 (Table 8 No. 23))?
Answer: 1 µg/mL

Question: What about the MIC ([4]; strain Efm N4 (Table 8 No. 24)) of the same molecule?
Answer: 1 µg/mL

Question: And the MIC50 [5, 11]?
Answer: 0.5 µg/mL

Question: And the MIC90 [5, 11]?
Answer: 0.5 µg/mL

Question: What about the MICrange [5, 11] of the same molecule?
Answer: 0.125 to 0.5 µg/mL

Question: And the MIC ([5]; strain S. ep MRSE4 (Table 8 No. 9))?
Answer: 0.5 µg/mL

Question: And the MIC ([5]; strain S. ep MRSE20 (Table 8 No. 6))?
Answer: 0.5 µg/mL

Question: What about the MIC ([5]; strain S. ep MRSE87 (Table 8 No. 13)) of the same molecule?
Answer: 0.5 µg/mL

Question: And the MIC ([5]; strain S. ep MRSE90 (Table 8 No. 10))?
Answer: 0.5 µg/mL

Question: And the MIC ([5]; strain S. ep MRSE101 (Table 8 No. 7))?
Answer: 0.125 µg/mL

Question: What about the MIC ([5]; strain S. ep MRSE105 (Table 8 No. 11)) of the same molecule?
Answer: 0.5 µg/mL

Question: What about the MIC ([5]; strain S. ep MRSE140 (Table 8 No. 14)) of the same molecule?
Answer: 0.5 µg/mL

Question: What about the MIC ([5]; strain S. ep MRSE142 (Table 8 No. 12)) of the same molecule?
Answer: 0.5 µg/mL

Question: What about the MIC ([5]; strain S. ep MRSE210 (Table 8 No. 15)) of the same molecule?
Answer: 0.5 µg/mL

Question: And the MIC ([5]; strain S. ep MRSE211 (Table 8 No. 8))?
Answer: 0.5 µg/mL

Question: What about the MIC50 [6, 12] of the same molecule?
Answer: 0.5 µg/mL

Question: And the MIC90 [6, 12]?
Answer: 0.5 µg/mL

Question: And the MICrange [6, 12]?
Answer: 0.125 to 0.5 µg/mL

Question: What about the MIC ([6]; strain Efa 116 (Table 8 No. 16)) of the same molecule?
Answer: 0.5 µg/mL

Question: And the MIC ([6]; strain Efa 907 (Table 8 No. 19))?
Answer: 0.5 µg/mL

Question: And the MIC ([6]; strain Efa 3006 (Table 8 No. 18))?
Answer: 0.25 µg/mL

Question: What about the MIC ([6]; strain Efa 33748 (Table 8 No. 17)) of the same molecule?
Answer: 0.5 µg/mL

Question: What about the MIC50 [7, 13] of the same molecule?
Answer: 1 µg/mL

Question: And the MIC90 [7, 13]?
Answer: 0.5 µg/mL

Question: What about the MICrange [7, 13] of the same molecule?
Answer: 0.25 to 0.5 µg/mL

Question: What about the MIC ([7]; strain S. MRSA 29 (Table 7 No. 15)) of the same molecule?
Answer: 0.5 µg/mL

Question: And the MIC ([7]; strain S. MRSA 101 (Table 7 No. 14))?
Answer: 0.5 µg/mL

Question: What about the MIC ([7]; strain S. MRSA 201 (Table 7 No. 13)) of the same molecule?
Answer: 0.5 µg/mL

Question: What about the MIC ([7]; strain S. MRSA B27 (Table 7 No. 21)) of the same molecule?
Answer: 0.5 µg/mL

Question: And the MIC ([7]; strain S. MRSA B105 (Table 7 No. 17))?
Answer: 0.5 µg/mL

Question: And the MIC ([7]; strain S. MRSA B143 (Table 7 No. 19))?
Answer: 0.5 µg/mL

Question: What about the MIC ([7]; strain S. MRSA B151 (Table 7 No. 20)) of the same molecule?
Answer: 0.25 µg/mL

Question: And the MIC ([7]; strain S. MRSA B164 (Table 7 No. 16))?
Answer: 0.5 µg/mL

Question: What about the MIC ([7]; strain S. MRSA B199 (Table 7 No. 22)) of the same molecule?
Answer: 0.5 µg/mL

Question: What about the MIC ([7]; strain S. MRSA B617 (Table 7 No. 18)) of the same molecule?
Answer: 0.5 µg/mL

Question: And the MIC50 [8, 14]?
Answer: 0.5 µg/mL

Question: And the MIC90 [8, 14]?
Answer: 0.5 µg/mL

Question: And the MICrange [8, 14]?
Answer: 0.5 to 1 µg/mL

Question: And the MIC ([8]; strain S. MSSA 123 (Table 7 No. 3))?
Answer: 0.5 µg/mL

Question: What about the MIC ([8]; strain S. MSSA 187 (Table 7 No. 7)) of the same molecule?
Answer: 0.5 µg/mL

Question: And the MIC ([8]; strain S. MSSA 195 (Table 7 No. 6))?
Answer: 1 µg/mL

Question: What about the MIC ([8]; strain S. MSSA 195 (Table 7 No. 12)) of the same molecule?
Answer: 0.5 µg/mL

Question: And the MIC ([8]; strain S. MSSA 201 (Table 7 No. 11))?
Answer: 0.5 µg/mL

Question: And the MIC ([8]; strain S. MSSA 232 (Table 7 No. 2))?
Answer: 0.5 µg/mL

Question: And the MIC ([8]; strain S. MSSA 275 (Table 7 No. 10))?
Answer: 0.5 µg/mL

Question: What about the MIC ([8]; strain S. MSSA 466 (Table 7 No. 8)) of the same molecule?
Answer: 0.5 µg/mL

Question: And the MIC ([8]; strain S. MSSA 519 (Table 7 No. 9))?
Answer: 0.5 µg/mL

Question: And the MIC ([8]; strain S. MSSA 520 (Table 7 No. 4))?
Answer: 0.5 µg/mL

Question: And the MIC ([8]; strain S. MSSA 580 (Table 7 No. 5))?
Answer: 0.5 µg/mL
